For assay [1], the target named is T1, adenosine A2b receptor (A2bR) (Homo sapiens, UniProt P29275).
T1 construct: expressed in transfected cells; host or cells: CHO-K1
T1 sequence (P29275 1-332): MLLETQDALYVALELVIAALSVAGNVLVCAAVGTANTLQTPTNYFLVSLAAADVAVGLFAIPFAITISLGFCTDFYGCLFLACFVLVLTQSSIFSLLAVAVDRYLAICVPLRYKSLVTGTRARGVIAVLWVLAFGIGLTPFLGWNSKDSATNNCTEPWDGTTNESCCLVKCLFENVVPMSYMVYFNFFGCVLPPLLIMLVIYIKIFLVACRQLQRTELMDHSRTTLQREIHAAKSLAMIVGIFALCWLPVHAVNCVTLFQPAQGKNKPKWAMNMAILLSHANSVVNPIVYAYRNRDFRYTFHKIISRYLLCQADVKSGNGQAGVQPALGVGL
Description: Inhibition of the adenosine A2b receptor cAMP signaling pathway in CHO-K1/A2bR cells (HTRF). The assay is classed as cell-based. Conditions: ethyl carbazole 1 μM, Table 2. An excerpt:
(§1) Determination of the inhibition activity of the compounds of the present invention on the adenosine A2a receptor (A2aR) cAMP signaling pathway, the adenosine A2b receptor (A2bR) cAMP signaling pathway, the adenosine A1 receptor (A1R) cAMP signaling pathway and the adenosine A3 receptor (A3R) cAMP signaling pathway.
(§2) The inhibition activity of the compounds of the present invention on the adenosine A2a receptor (A2aR) cAMP signaling pathway, the adenosine A2b receptor cAMP signaling pathway, the adenosine A1 receptor cAMP signaling pathway and the adenosine A3 receptor cAMP signaling pathway was determined by the following method. The experimental method is briefly described as follows:
2.2 Adenosine A2b Receptor
CHO-K1/A2bR cells were cultured in DMEM/F12 medium containing 10% fetal bovine serum and 1 mg/ml G418. The cells were digested with the cell separation buffer during the experiment. The cells were resuspended in the balanced salt buffer containing 20 mM HEPES and 0.1% bovine serum albumin and counted, and the cell density was adjusted to 10^6 cells/ml. In the 384-well plate, each well was added with 5 μl of cell suspension, and 2.5 μl of test compound (4× concentration) formulated with the balanced salt buffer containing 20 mM HEPES, 0.1% bovine serum albumin, 54 μM rolipram and 2.7 U/ml adenosine deaminase, and the plate was incubated at room temperature for 30 minutes. Each well was then added with 2.5 μl of […] (4× concentration) (Torcis, 1691/10) formulated with the balanced salt buffer containing 20 mM HEPES, 0.1% bovine serum albumin, 54 μM rolipram and 2.7 U/ml adenosine deaminase, and the plate was incubated at room temperature for 30 minutes. The final concentrations of the compounds were: 100000, 10000, 1000, 100, 10, 1, 0.1 and 0 nM. The final concentration of […] was 1 μM. Intracellular cAMP concentration was detected with the cAMP dynamic 2 kit. cAMP-d2 and Anti-cAMP-Eu-Cryptate were diluted respectively with the cAMP lysis buffer at a ratio of 1:4. Each well was added with 5 μl of diluted cAMP-d2, followed by addition of 5 μl of diluted Anti-cAMP-Eu-Cryptate, and the plate was incubated at room temperature in the dark for 1 hour. The HTRF signal values were read by the PHERAstar multi-function microplate reader.
(TR-FRET usually uses a lanthanide donor and a delayed reading to cut background.)

Assay [2] concerns the target T2, adenosine A2a receptor (A2aR) (Homo sapiens, UniProt P29274).
T2 construct: expressed in transfected cells; host or cells: CHO-K1
Description: Inhibition of the adenosine A2a receptor cAMP signaling pathway in CHO-K1/A2aR cells (HTRF). The following applies: CHO-K1/A2aR cells, cAMP, NECA 20 nM; Table 1. The assay is classed as cell-based.
From the text: as §1, §2
2.1 Adenosine A2a receptor
CHO-K1/A2aR cells were cultured in DMEM/F12 medium containing 10% fetal bovine serum and 800 μg/ml bleomycin. The cells were digested with the cell separation buffer during the experiment. The cells were resuspended in the balanced salt buffer containing 20 mM HEPES and 0.1% bovine serum albumin and counted, and the cell density was adjusted to 10^6 cells/ml. In the 384-well plate, each well was added with 5 μl of cell suspension, and 2.5 μl of test compound (4× concentration) formulated with the balanced salt buffer containing 20 mM HEPES, 0.1% bovine serum albumin, 54 μM rolipram and 2.7 U/ml adenosine deaminase, and the plate was incubated at room temperature for 30 minutes. Each well was then added with 2.5 μl of […] (4× concentration) formulated with the balanced salt buffer containing 20 mM HEPES, 0.1% bovine serum albumin, 54 μM rolipram and 2.7 U/ml adenosine deaminase, and the plate was incubated at room temperature for 30 minutes. The final concentrations of the compounds were: 10000, 2000, 400, 80, 16, 3.2, 0.64, 0.128, 0.0256, 0.00512, and 0.001024 nM. The final concentration of […] was 20 nM. Intracellular cAMP concentration was detected with the cAMP dynamic 2 kit. cAMP-d2 and Anti-cAMP-Eu-Cryptate were diluted respectively with the cAMP lysis buffer at a ratio of 1:4. Each well was added with 5 μl of diluted cAMP-d2, followed by addition of 5 μl of diluted Anti-cAMP-Eu-Cryptate, and the plate was incubated at room temperature in the dark for 1 hour. The HTRF signal values were read by the PHERAstar multi-function microplate reader.

For orientation: IC50 means the point on the concentration scale where inhibition reaches its midpoint.

T2 sequence (P29274 whole entry): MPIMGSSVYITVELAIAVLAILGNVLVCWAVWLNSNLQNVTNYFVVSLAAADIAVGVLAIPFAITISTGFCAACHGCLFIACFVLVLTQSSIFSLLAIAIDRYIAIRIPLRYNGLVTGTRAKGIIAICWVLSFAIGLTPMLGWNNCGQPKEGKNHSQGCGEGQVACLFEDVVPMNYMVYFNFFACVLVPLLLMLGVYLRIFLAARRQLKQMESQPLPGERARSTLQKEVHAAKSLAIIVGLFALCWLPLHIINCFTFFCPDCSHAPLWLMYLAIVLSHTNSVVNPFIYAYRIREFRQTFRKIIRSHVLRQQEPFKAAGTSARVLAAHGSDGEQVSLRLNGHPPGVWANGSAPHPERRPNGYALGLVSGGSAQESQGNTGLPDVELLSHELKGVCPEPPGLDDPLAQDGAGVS

As to `Nc1nnc(-c2cc(Cl)c3ncccc3c2)c(-c2ccccc2)n1` [Example 4, 6-(8-Chloroquinolin-6-yl)-5-phenyl-1,2,4-triazin-3-amine], the results for the half-inhibitory concentration (IC50) in assay [1] and in assay [2] were 4 nM and 0.7 nM, respectively.

For `Cc1ccc(-c2nc(N)nnc2-c2cc(C)c3ncccc3c2)o1` [Example 5, 5-(5-Methylfuran-2-yl)-6-(8-methylquinolin-6-yl)-1,2,4-triazin-3-amine], the IC50 in assay [1] was determined as 46 nM; in assay [2], 0.4 nM.

As to `Cc1ccnc2ccc(-c3nnc(N)nc3-c3ccccc3)cc12` [Example 14, 6-(4-Methylquinolin-6-yl)-5-phenyl-1,2,4-triazin-3-amine], the half-maximal inhibitory concentration (IC50) amounted to 3 nM in assay [1] and 0.1 nM in assay [2].

Consider `COc1ccnc2ccc(-c3nnc(N)nc3-c3ccccc3)cc12` [Example 23, 6-(4-Methoxyquinolin-6-yl)-5-phenyl-1,2,4-triazin-3-amine], for which the IC50 amounted to 17 nM in assay [1] and 0.4 nM in assay [2].

As for `COc1cc(-c2nnc(N)nc2-c2ccccc2)cc2cccnc12` [Example 25, 6-(8-Methoxyquinolin-6-yl)-5-phenyl-1,2,4-triazin-3-amine], the IC50 in assay [1] was found to be 4 nM; in assay [2], 1.5 nM.

As for `Cc1ncnc2ccc(-c3nnc(N)nc3-c3ccc(Cl)cc3)cc12` [Example 46, 5-(4-Chlorophenyl)-6-(4-methylquinazolin-6-yl)-1,2,4-triazin-3-amine], the IC50 in assay [1] stood at 18 nM; in assay [2], 1.6 nM.

Values taken from patent US11014904B2, “1,2,4-triazine-3-amine derivative, preparation method therefor, and use thereof in medicine” (Jiangsu Hengrui Medicine Co., Ltd., priority 2017, dated 2021).
